# In PubChem BioAssay (NCI):
# Where “and” joins values, the source holds several entries; their conditions need not be identical. Equal entries are not always repeated.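 Results reflect a 48-hour exposure of cells in 96-well plates to compound at five concentrations. At the GI50, growth is halved. TGI: concentration producing complete growth inhibition.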
# How the values were obtained:
# Assay in all cases: NCI-60 cell line screen, 48 h
# CCRF-CEM leukemia = test system: CCRF-CEM leukemia
# NCI-H226 lung = test system: NCI-H226 lung
# OVCAR-3 ovarian = test system: OVCAR-3 ovarian
# SF-295 CNS = test system: SF-295 CNS
# NCI-H460 lung = test system: NCI-H460 lung
# KM12 colon = test system: KM12 colon
# SK-OV-3 ovarian = test system: SK-OV-3 ovarian
# COLO 205 colon = test system: COLO 205 colon
# HOP-92 NSCLC = test system: HOP-92 NSCLC
# EKVX NSCLC = test system: EKVX NSCLC
SMILES,GI50 (CCRF-CEM leukemia),TGI (CCRF-CEM leukemia),GI50 (NCI-H226 lung),TGI (NCI-H226 lung),GI50 (OVCAR-3 ovarian) [µM],TGI (OVCAR-3 ovarian),GI50 (SF-295 CNS) [µM],TGI (SF-295 CNS),GI50 (NCI-H460 lung) [µM],TGI (NCI-H460 lung),GI50 (KM12 colon) [µM],TGI (KM12 colon),GI50 (SK-OV-3 ovarian) [µM],TGI (SK-OV-3 ovarian) [µM],GI50 (COLO 205 colon) [µM],TGI (COLO 205 colon) [µM],GI50 (HOP-92 NSCLC) [µM],TGI (HOP-92 NSCLC),GI50 (EKVX NSCLC) [µM],TGI (EKVX NSCLC)
Cc1cc2c(cc1Cl)SC1=NN(C)C(c3ccccc3O)N1S2(=O)=O (centres undefined),75.4 µM,> 100 µM,> 100 µM,> 100 µM,46,> 100 µM,43.6,> 100 µM,37.4,> 100 µM,57.7,> 100 µM,> 100,> 100,> 100,> 100,37.6,> 100 µM,81.7,> 100 µM
COc1ccc(N=C2NN=C(c3c[nH]c4ccccc34)CS2)cc1OC,3.7 µM,> 100 µM,15.9 µM,> 100 µM,2.87,> 40.6 µM,4.29,> 100 µM,4.11,> 45.2 µM,3.05,> 84.2 µM,14.2,> 100,6.55,> 76.5,5.81,> 58.1 µM,8.77,> 100 µM
Cn1cc(-c2nn3cc(-c4cccs4)nc3s2)c2cc(F)ccc21,2.54 µM,> 100 µM,4.56 µM,35.8 µM,2.06,9.67 µM,2.24,9.39 µM,1.73,17.1 µM,1.04,> 100 µM,3.47,70.9,–,–,12.2,76.9 µM,2.51,> 100 µM
COc1cc(C(=O)/C=C/c2c(C(F)(F)F)nc3sccn23)cc(OC)c1OC,1.24 µM,8.34 µM,2.17 µM,5.54 µM,1.86,3.4 µM,2.58,7.86 µM,1.65,3.94 µM,1.47,2.97 µM,2.87,8.99,1.94,3.44,7,22.4 µM,2.72,10.7 µM
O=c1[nH]c(-c2ccccn2)nc2sc3c(c12)CCCCCC3,0.905 µM,> 100 µM,> 100 µM,> 100 µM,8.51,> 100 µM,–,–,1.91,> 100 µM,4.1,> 100 µM,> 100,> 100,5.85,> 100,3.9,> 100 µM,–,–
Cc1cccc(CC(C)(C)C)c1NC(=O)C(=O)C(C(=O)c1ccc2ccccc2c1)C1OC(=O)c2ccccc21 (centres undefined),–,–,–,7.12 µM,–,> 100 µM,–,21.6 µM,–,17 µM,–,30.3 µM,–,> 100,–,92,–,8.54 µM,–,82.1 µM
Cc1[nH]c(=O)nc(N/N=C/c2ccc(O)cc2)c1C(=O)Nc1ccc(Cl)cc1,–,> 100 µM,–,> 100 µM,–,> 100 µM,–,–,–,> 100 µM,–,> 100 µM,–,> 100,–,> 100,–,–,–,> 100 µM
C#Cc1ccc(-n2c(/C=C/c3cc(OC)c(OC)c(OC)c3)nc3ncccc3c2=O)cc1,4.9 µM,> 100 µM,12.9 µM,> 100 µM,2.33,6.42 µM,–,–,4.11,25.3 µM,3.32,12.8 µM,5.33,77.7,3.19,11.9,2.31,7.72 µM,–,–
Cc1nc(C(N)=S)sc1C(=O)CC(=O)C(=O)Nc1cccc(Cl)c1C,–,> 100 µM,–,> 100 µM,–,> 100 µM,–,> 100 µM,–,> 100 µM,–,> 100 µM,–,> 100,–,–,–,> 100 µM,–,> 100 µM
COc1ccc(-n2nc(C)c3c2N(C)C2(C)C[C@@H]4C3(C)[C@@H]3CC4(C2)N(C)c2c(c(C)nn2-c2ccc(OC)cc2)[C@H]3C)cc1 (some centres undefined),–,–,5.34 µM,> 100 µM,7.14,> 100 µM,–,–,3.69,> 100 µM,–,–,2.53,9.54,–,–,–,–,–,–
Cc1cc(N)c2ccccc2[n+]1CCCCCCCCCC[n+]1c(C)cc(N)c2ccccc21,0.635 µM and 1.3 µM,3.53 µM and 16.2 µM and 6.15 µM,0.576 µM and 1.11 µM,> 50 µM and 22.7 µM and 5.29 µM,–,–,0.189,1.84 µM and 11.9 µM and 3.61 µM,0.121,0.516 µM and 1.55 µM,0.145,0.65 µM and 1.49 µM,–,–,–,–,0.168,–,–,> 50 µM and 49.4 µM and 26.9 µM
CCOC(=O)Cc1csc(NC(=O)C(OC(=O)c2ccc(N)cc2)c2ccccc2)n1 (centres undefined),–,–,60 µM,> 100 µM,20.5,45.3 µM,42.2,> 100 µM,32.7,> 100 µM,37.5,> 100 µM,46.7,> 100,46.2,> 100,62,> 100 µM,> 100,> 100 µM
CC(C)C[C@H](NC(=O)[C@@H](O)[C@H](N)Cc1ccccc1)C(=O)O,–,> 100 µM,–,> 100 µM,–,> 100 µM,–,> 100 µM,–,> 100 µM,–,> 100 µM,–,> 100,–,> 100,–,> 100 µM,–,–
CN1C(=O)C23CC4=CC=CC(O)C4N2C(=O)C1(CO)SS3 (centres undefined),–,–,–,0.152 µM,–,0.33 µM,–,0.389 µM,–,0.801 µM,–,0.453 µM,–,2.75,–,0.292,–,0.41 µM,–,1.33 µM
Cc1ns/c(=N\C(=S)N(C)C)n1C,–,> 100 µM,–,> 100 µM,–,–,–,> 100 µM,–,> 100 µM,–,> 100 µM,–,> 100,–,–,–,> 100 µM,–,> 100 µM
CN1CCN(C(=S)SCN2C(=O)c3ccccc3S2(=O)=O)CC1,2.23 µM,–,> 100 µM,> 100 µM,21.9,63.2 µM,> 100,> 100 µM,17.8,96.1 µM,25.3,> 100 µM,> 100,> 100,3.48,21.3,–,–,> 100,> 100 µM
O=c1c2cc(F)ccc2sc2c(NCCCN3CCCC3)nc3ccccc3c12,2.02 µM,4.51 µM,3.37 µM,15.4 µM,2.07,4.72 µM,2.1,4.39 µM,–,–,–,–,2.35,7.79,–,–,1.13,3.85 µM,2.58,8.48 µM

SMILES,GI50 (CCRF-CEM leukemia),TGI (CCRF-CEM leukemia),GI50 (NCI-H226 lung),TGI (NCI-H226 lung),GI50 (OVCAR-3 ovarian) [µM],TGI (OVCAR-3 ovarian),GI50 (SF-295 CNS) [µM],TGI (SF-295 CNS),GI50 (NCI-H460 lung) [µM],TGI (NCI-H460 lung),GI50 (KM12 colon) [µM],TGI (KM12 colon),GI50 (SK-OV-3 ovarian) [µM],TGI (SK-OV-3 ovarian) [µM],GI50 (COLO 205 colon) [µM],TGI (COLO 205 colon) [µM],GI50 (HOP-92 NSCLC) [µM],TGI (HOP-92 NSCLC),GI50 (EKVX NSCLC) [µM],TGI (EKVX NSCLC)
CC1(C)CC2(C)OC2C2(C1)N=NC(=Nc1ccccc1)O2 (centres undefined),2.46 µM,8.07 µM,10.7 µM,29.6 µM,2.23,4.81 µM,13.3,29.1 µM,11.3,31.5 µM,13.6,28.6 µM,28.5,> 100,10.9,24.9,–,–,–,–
CC(=O)N[C@@H]1CCC[C@H](C(=O)Nc2cc(-c3cnn4c3CC(C)(C)C4)c(Cl)cn2)C1,< 0.01 µM,0.315 µM,< 0.01 µM,38.7 µM,–,–,< 0.0125,> 100 µM,< 0.0115,12.4 µM,< 0.01,12.2 µM,0.0633,> 100,–,–,< 0.01,0.0389 µM,0.0197,–
O=C1/C(=C/c2ccccc2)CN(C(=O)Oc2ccc([N+](=O)[O-])cc2)C/C1=C\c1ccccc1,1.72 µM,6.5 µM and 8.22 µM,–,–,–,5.58 µM,2.07,7.93 µM and 4.98 µM,–,–,1.88,2.89 µM and 5.49 µM,–,–,4.95,–,–,–,–,–
O=C(CC(C(=O)O)N1CCOCC1)c1ccccc1 (centres undefined),–,15 µM,–,> 100 µM,–,35.7 µM,–,> 100 µM,–,42.1 µM,–,–,–,> 100,–,39.7,–,38 µM,–,38.4 µM
CCOC(=N)CC(=O)NC(C)c1ccccc1 (centres undefined),–,> 100 µM,–,> 100 µM,–,> 100 µM,–,> 100 µM,–,> 100 µM,–,> 100 µM,–,> 100,–,> 100,–,–,–,> 100 µM
O=C1CC2Sc3ccccc3N=C2N1c1ccc(Cl)cc1Cl (centres undefined),–,52.9 µM,–,> 100 µM,–,> 100 µM,–,> 100 µM,–,> 100 µM,–,> 100 µM,–,–,–,> 100,–,> 100 µM,–,> 100 µM
CC(C)n1nc(C#Cc2cccc(NC(=O)c3cccc(C(F)(F)F)c3)c2)c2c(N)ncnc21,2.73 µM,> 100 µM,0.99 µM,6.35 µM,2.96,28.9 µM,2.88,> 100 µM,3,> 100 µM,3.41,> 100 µM,1.98,4.55,0.524,5.73,–,–,3.46,> 100 µM
CN1c2ccccc2C(=O)Nc2cnc(Cl)nc21,–,> 100 µM,–,> 100 µM,–,> 100 µM,–,> 100 µM,–,–,–,> 100 µM,–,> 100,–,> 100,–,> 100 µM,–,> 100 µM
COc1cc(C(=O)N/N=C/c2cccc([N+](=O)[O-])c2)cc(OC)c1OC,4.52 µM,> 100 µM,18 µM,> 100 µM,2.39,6.64 µM,2.75,29.2 µM,3.23,> 100 µM,2.41,> 100 µM,31.9,> 100,5.11,26.9,–,–,18.7,> 100 µM
CC[C@@]1(OC(=O)CN(C)C)C(=O)OCc2c1cc1n(c2=O)Cc2cc3ccccc3nc2-1,–,–,–,0.42 µM and 0.445 µM,0.356,2.15 µM and 1.73 µM,< 0.0127,0.673 µM and 0.938 µM,–,0.147 µM,–,–,0.123,2.88,0.288,6.3,0.216,0.944 µM and 2.19 µM,1.88,–
COC(=O)C(=O)C(C(=O)C(=O)Nc1ccccc1C(N)=O)c1nc2ccc(C(=O)c3ccccc3)cc2[nH]c1=O (centres undefined),–,> 100 µM,–,> 100 µM,–,–,–,> 100 µM,–,> 100 µM,–,> 100 µM,–,–,–,> 100,–,–,–,> 100 µM
C[C@H](NC(=O)CCC(F)(F)F)C(=O)N[C@@H]1C(=O)N(CCO)c2ncccc2-c2ccccc21,> 100 µM,> 100 µM,> 100 µM,> 100 µM,> 100,> 100 µM,> 100,> 100 µM,> 100,> 100 µM,> 100,> 100 µM,> 100,> 100,> 100,> 100,–,–,> 100,> 100 µM
Cc1ccc(OCCCCCCNCCO)c(C)c1,15.6 µM,36.7 µM,15.1 µM,32.9 µM,15.5,29.6 µM,17.8,39 µM,14.9,30.8 µM,17.2,32.4 µM,15.6,29.8,10,26.3,2.36,13.4 µM,–,–
COc1ccccc1NC(=O)C(=O)C1C(=O)Nc2ccccc2S1=O (centres undefined),–,> 100 µM,–,> 100 µM,–,> 100 µM,–,> 100 µM,–,> 100 µM,–,> 100 µM,–,> 100,–,> 100,–,–,–,> 100 µM
COc1ncnc2c(-c3ccco3)cn(COCc3ccccc3)c12,> 50 µM,> 50 µM,> 50 µM,> 50 µM,> 50,> 50 µM,> 50,> 50 µM,–,–,> 50,> 50 µM,> 50,> 50,> 50,> 50,–,–,11.5,> 50 µM
CCN1CC2(C)CC[C@@H](OC)C34[C@@H]2[C@H](OC(C)=O)C2(OCO[C@@]25C[C@H](OC)C2C[C@]3(O)[C@@H]5[C@H]2O)[C@H]14,–,–,–,> 100 µM,–,> 100 µM,–,> 100 µM,–,> 100 µM,–,> 100 µM,–,–,–,> 100,–,> 100 µM,–,> 100 µM
CC(C)=C1CCC(CN2CCCC2)C1=O (centres undefined),–,39 µM,–,> 100 µM,–,31.3 µM,–,> 100 µM,–,> 100 µM,–,> 100 µM,–,–,–,–,–,58.5 µM,–,> 100 µM
